Data set [1] addresses T1, Leukotriene A-4 hydrolase (Homo sapiens, UniProt P09960).
T1 sequence (P09960 whole entry): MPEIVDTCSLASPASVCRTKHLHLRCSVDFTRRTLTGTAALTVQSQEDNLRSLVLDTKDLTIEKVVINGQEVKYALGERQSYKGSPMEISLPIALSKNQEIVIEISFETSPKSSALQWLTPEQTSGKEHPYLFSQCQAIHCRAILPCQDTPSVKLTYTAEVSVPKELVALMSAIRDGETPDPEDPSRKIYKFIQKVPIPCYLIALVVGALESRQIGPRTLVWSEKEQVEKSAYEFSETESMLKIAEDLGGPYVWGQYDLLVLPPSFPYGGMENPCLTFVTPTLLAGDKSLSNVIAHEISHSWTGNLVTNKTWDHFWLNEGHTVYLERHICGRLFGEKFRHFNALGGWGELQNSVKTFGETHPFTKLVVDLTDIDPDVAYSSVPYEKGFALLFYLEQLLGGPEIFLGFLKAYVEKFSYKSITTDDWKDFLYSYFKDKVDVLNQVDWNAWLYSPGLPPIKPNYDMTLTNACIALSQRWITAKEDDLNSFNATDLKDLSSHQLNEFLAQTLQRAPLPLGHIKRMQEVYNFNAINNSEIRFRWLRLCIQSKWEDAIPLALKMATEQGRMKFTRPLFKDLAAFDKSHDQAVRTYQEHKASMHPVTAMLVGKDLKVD

Data set [2] in a line: Metabolic stability in rat microsomes assessed as compound remaining after 1 hr. In kind it is ADME, Microsome. Particulars: read-out: Stability.
For data set [3], the target named is T1, Leukotriene A-4 hydrolase. The source holds these as a separate data set.
Data set [4] can be described thus: Clearance in iv dosed rat. The format is ADME, organism-based. The note with it: in vivo.
The nature of data set [5]: Oral bioavailability in rat. The format is ADME, organism-based. Particulars: in vivo.
The nature of data set [6]: Half life in iv dosed rat. In kind it is ADME, organism-based. Particulars: in vivo.
In data set [7] the target is T1, Leukotriene A-4 hydrolase. The source holds these as a separate data set.

As to `CN(C)CCCN(C)CC(=O)Nc1ccc(Oc2ccccc2)cc1`, the IC50 in data set [1] amounted to 135 nM; in data set [3], 160 nM. In data set [2], the remaining at 1 h was below 33%.
Take `CN(CC(=O)Nc1ccc(Oc2ccccc2)cc1)C1CCN(Cc2ccc(C(=O)O)cc2)C1` (stereo in doubt; 4u): the IC50 in data set [1] was found to be 220 nM; in data set [3], 57 nM.
In the same order, the values of `CN(Cc1ccc(C(=O)O)cc1)C1CCN(CC(=O)Nc2ccc(Oc3ccccc3)cc2)CC1` are 260 nM and 490 nM.
For `CN(CCCN(C)CC1CCC(C(=O)O)CC1)CC(=O)Nc1ccc(Oc2ccccc2)cc1` (stereo not given), in that order: 430 nM and 25 nM.
For `CN(CCN(C)Cc1ccc(C(=O)O)cc1)CC(=O)Nc1ccc(Oc2ccccc2)cc1`, the IC50 turned out to be 140 nM in data set [1] and 15 nM in data set [3].
In the same order, the values of `CN(CCCN(C)Cc1ccc(S(N)(=O)=O)cc1)CC(=O)Nc1ccc(Oc2ccccc2)cc1` are above 1000 nM and 33 nM.
For `CN(Cc1ccc(C(=O)O)cc1)CC1CCCN1CC(=O)Nc1ccc(Oc2ccccc2)cc1` (stereo in doubt; 4s), in that order: 60 nM and 17 nM.
`CN(CCCN(C)Cc1ccc(C(=O)O)cc1)CC(=O)Nc1ccc(OCC(O)c2ccccc2)cc1` (stereo not given): the IC50 in data set [1] is 210 nM; in data set [3], 19 nM.
For `CN(CCCN(C)Cc1ccc(-c2nnn[nH]2)cc1)CC(=O)Nc1ccc(Oc2ccccc2)cc1`, in that order: 250 nM and 4 nM.
`CN(CCCN(C)Cc1ccc(C(=O)O)c(F)c1)CC(=O)Nc1ccc(Oc2ccccc2)cc1`: the results for the IC50 in data set [1] and in data set [3] were 340 nM and 6 nM, respectively.
Turning to `CN(CCCN(C)Cc1ccc(C(=O)O)cc1)CC(=O)Nc1ccc(Oc2ccccc2)cc1`, the half-inhibitory concentration (IC50) in data set [1] was determined as 120 nM; in data set [3] it was 6 nM. Further, in data set [4], the clearance amounted to 38 mL/min/kg. In data set [5], this compound displayed a bioavailability of 45%. For the same compound, the remaining at 1 h in data set [2] is above 90%. The same compound had a half-life in data set [6] of 0.9 h.
On to `CN(Cc1ccc(C(=O)O)cc1)CC1CCCCN1CC(=O)Nc1ccc(Oc2ccccc2)cc1` (stereo in doubt; 4o), for which the IC50 was 60 nM in data set [1] and 16 nM in data set [3].
In the same order, the values of `CN(CCCC(=O)O)CCCN(C)CC(=O)Nc1ccc(Oc2ccccc2)cc1` are 1500 nM and 110 nM.
In the same order, the values of `CN(CCCN(C)CC(=O)Nc1ccc(Oc2ccccc2)cc1)CCc1ccc(C(=O)O)cc1` are 80 nM and 3 nM.
For `CN(CCCN(C)Cc1ccc(C(=O)O)cc1[N+](=O)[O-])CC(=O)Nc1ccc(Oc2ccccc2)cc1`, in that order: 290 nM and 15 nM.
Regarding `CN(CC(=O)Nc1ccc(Oc2ccccc2)cc1)C[C@@H]1CCCN1Cc1ccc(C(=O)O)cc1`, the values for the IC50 in data set [1] and in data set [3] were 200 nM and 100 nM, respectively.
For the compound `O=C(CN1CCCN(Cc2ccc(C(=O)O)cc2)CC1)Nc1ccc(Oc2ccccc2)cc1`, the IC50 in data set [1] turned out to be 180 nM; in data set [3], 70 nM.
For `CN(CCCNCc1ccc(C(=O)O)cc1)CC(=O)Nc1ccc(Oc2ccccc2)cc1`, in that order: 420 nM and 19 nM.
For `CN(CCCN(C)Cc1ccc(C(=O)O)cc1)CC(=O)Nc1ccc(Oc2ccc(F)cc2)cc1`, in that order: 120 nM and 6 nM.
On to `CN(CCCN(C)Cc1ccc(C(=O)O)cc1)CC(=O)Nc1ccc(Cc2ccccc2)cc1`, for which the IC50 in data set [1] was 70 nM; in data set [3], 3 nM.
In the same order, the values of `CN(Cc1ccc(C(=O)O)cc1)CC1CCCCN1CC(=O)Nc1ccc(Oc2ccccc2)cc1` (stereo in doubt; 4n) are 100 nM and 17 nM.
In the same order, the values of `O=C(CNCCCNCc1ccc(C(=O)O)cc1)Nc1ccc(Oc2ccccc2)cc1` are above 1000 nM and 370 nM.
For `CN(CCCN(C)Cc1ccc(C(=O)O)o1)CC(=O)Nc1ccc(Oc2ccccc2)cc1`, in that order: 440 nM and 28 nM.
As for `CN(CC(=O)Nc1ccc(Oc2ccccc2)cc1)C1CCCN(Cc2ccc(C(=O)O)cc2)CC1` (stereo not given), the values for the half-inhibitory concentration (IC50) in data set [1] and in data set [3] were 380 nM and 160 nM, respectively.
In the same order, the values of `CN(CCCN(C)Cc1ccc(C(=O)O)cc1)CC(=O)Nc1ccc(Oc2ccc(Cl)cc2)cc1` are 90 nM and 17 nM.
As for `CN(CCCN(C)Cc1ccc(C(=O)O)cc1F)CC(=O)Nc1ccc(Oc2ccccc2)cc1`, the figures for the half-inhibitory concentration (IC50) in data set [1] and in data set [3] were 160 nM and 7 nM, respectively.
In the same order, the values of `CN(CCCN(C)Cc1ccc(C(=O)O)c(Br)c1)CC(=O)Nc1ccc(Oc2ccccc2)cc1` are 360 nM and 10 nM.
Consider `CN(CCCCC(=O)O)CCCN(C)CC(=O)Nc1ccc(Oc2ccccc2)cc1`, for which the IC50 amounted to 230 nM in data set [1] and 18 nM in data set [3].
For `O=C(CN1CCN(Cc2ccc(C(=O)O)cc2)CC1)Nc1ccc(Oc2ccccc2)cc1`, in that order: above 1000 nM and 1000 nM.
For `CN(Cc1ccc(C(=O)O)cc1)C1CCCN(CC(=O)Nc2ccc(Oc3ccccc3)cc2)CC1` (stereo not given), in that order: 220 nM and 140 nM.
Consider `CN(CCCN(C)Cc1ccc(C(=O)O)cc1)CC(=O)Nc1ccc(Oc2ccccc2F)cc1`, for which the IC50 turned out to be 230 nM in data set [1] and 16 nM in data set [3].
For `CN(CCCNCC(=O)Nc1ccc(Oc2ccccc2)cc1)Cc1ccc(C(=O)O)cc1`, in that order: above 1000 nM and 330 nM.
`CN(CC(=O)Nc1ccc(Oc2ccccc2)cc1)C[C@H]1CCCN1Cc1ccc(C(=O)O)cc1`: the IC50 in data set [1] is 30 nM; in data set [3] it was 7 nM. The compound also displayed a clearance in data set [4] of 28 mL/min/kg. Besides, the bioavailability in data set [5] was 45%. This compound also gave a half-life in data set [6] of 2.6 h.
For `O=C(CN1CC2CC1CN2Cc1ccc(C(=O)O)cc1)Nc1ccc(Oc2ccccc2)cc1` (stereo not given), the results for the IC50 in data set [1] and in data set [3] were 240 nM and 44 nM, respectively.
As for `CN(Cc1ccc(C(=O)O)cc1)CC1CCCN1CC(=O)Nc1ccc(Oc2ccccc2)cc1` (stereo in doubt; 4r), the results for the concentration for half-maximal inhibition (IC50) in data set [7] and in data set [3] were 60 nM and 26 nM, respectively.
Turning to `CN(CCCN(C)Cc1ccccc1)CC(=O)Nc1ccc(Oc2ccccc2)cc1`, the figures for the IC50 in data set [1] and in data set [3] were 350 nM and 90 nM, respectively. Also, the remaining at 1 h in data set [2] was below 33%.
As to `CN(CCCN(C)Cc1ccc(C(=O)O)cc1)CC(=O)Nc1ccc(Oc2ccc(-c3ncco3)cc2)cc1`, the values for the IC50 in data set [1] and in data set [3] were 60 nM and 5 nM, respectively.
`CN(CC(=O)Nc1ccc(Oc2ccccc2)cc1)C1CCN(Cc2ccc(C(=O)O)cc2)C1` (stereo in doubt; 4t): the IC50 came to 180 nM in data set [1] and 120 nM in data set [3].

As a reminder, the IC50 is the concentration that gives 50% inhibition. By clearance is commonly meant a measure of how efficiently the substance is removed, as volume per time. Low readings indicate inefficient removal, high ones efficient removal. The term bioavailability denotes dose-corrected exposure relative to a reference, in per cent. Read a low bioavailability as poor availability. As a reminder, the half-life is the time in which the quantity being followed falls by half.

For the origin of these results see ChEMBL document CHEMBL1155105, “Synthesis of N-alkyl glycine amides as potent inhibitors of leukotriene A4 hydrolase” (Bioorg Med Chem Lett, 2008).
